According to publication PMC3460366, “Synthesis and Antibacterial Evaluation of a New Series of N-Alkyl-2-alkynyl/(E)-alkenyl-4-(1H)-quinolones” (Molecules, 2012):
Converted amounts (≈) assume the structure as drawn. “And” between values parts separate entries of the source, which are not always exact repeats. Equal entries are not always repeated.

Experiments:
[1] = test system: human diploid embryonic lung cell line MRC-5; assay: XTT cytotoxicity assay on MRC-5 cells; assay type: cell-based; settings: XTT
Description: In order to assess the cytotoxicity of these novel quinolone derivatives, the effect on the viability of a human lung fibroblast cell line MRC-5, was measured using XTT proliferation assay. […] In addition, the position of the triple bond in the side chain seems to have a significant influence on cytotoxcity which is increased in compounds with a triple bond more distant to the quinolone nucleus. This can be concluded by comparing results of 8l, 8n, 8p, and 8r having similar antimycobacterial activity on M. smegmatis but different cytotoxcity depending on triple bond position.
The cytotoxic activity of the synthetic compounds was determined by means of an XTT Cell Proliferation Kit II (Roche Diagnostics, Mannheim, Germany) using the human diploid embryonic lung cell line MRC-5 [11]. The quinolone derivatives were tested at concentrations of 100, 60, 30 and 10 µM in triplicate and the percentage of viable cells at each concentration was determined by comparing with the control.

[2] = test system: M. smegmatis (ATCC 14468); assay: Microtiter broth dilution MIC against M. smegmatis (ATCC 14468); assay type: cell-based; settings: Mycolicibacterium smegmatis, ATCC14468, 72 h, 37 °C, MTT
M. fortuitum (ATCC 6841) = assay: Broth dilution MIC against M. fortuitum; assay type: cell-based; settings: Mycolicibacterium fortuitum, ATCC6841, 72 h
M. phlei (ATCC 11758) = assay: Broth dilution MIC against M. phlei; assay type: cell-based; settings: Mycolicibacterium phlei, ATCC11758, 72 h
M. smegmatis mc^2155 = assay: Broth dilution MIC against M. smegmatis mc^2155; assay type: cell-based; settings: Mycolicibacterium smegmatis, 72 h
[3] = test system: M. bovis BCG (ATCC 35734); assay: microbe, parasite or virus in culture; assay type: cell-based; settings: Mycobacterium tuberculosis variant bovis BCG, 336 h, read-out: MIC M. bovis BCG
S. aureus EMRSA-15 = assay: Broth dilution MIC against EMRSA-15; assay type: cell-based; settings: Staphylococcus aureus, EMRSA15, 18 h
S. aureus EMRSA-16 = assay: Broth dilution MIC against EMRSA-16; assay type: cell-based; settings: Staphylococcus aureus, EMRSA16, 18 h

Row | SMILES | Metabolic active MRC-5 cells (%) ([1]; 10 µM) | Metabolic active MRC-5 cells (%) ([1]; 30 µM) | Metabolic active MRC-5 cells (%) ([1]; 60 µM) | Metabolic active MRC-5 cells (%) ([1]; 100 µM) | MIC [2] | other results
1 | CCCCCCC#CCCc1cc(=O)c2ccccc2n1C [Compound 8a, 1-Methyl-2-(3′-decynyl)-4(1H)-quinolone] | 100 ± 1.05% | 98.4 ± 1.07% | 97.5 ± 0.74% | 89.3 ± 2.94% | 32 µg/mL and 108 µM | –
2 | CCCCCCC#CCCc1cc(=O)c2ccccc2n1CC [Compound 8b, 1-Ethyl-2-(3'-decynyl)-4(1H)-quinolone] | 102 ± 0.85% | 100 ± 0.73% | 98.4 ± 0.77% | 85.7 ± 1.96% | 16 µg/mL and 51.8 µM | –
3 | CCCCCCC#CCCc1cc(=O)c2ccccc2n1CCC [Compound 8c, 1-(n-Propyl)-2-(3′-decynyl)-4(1H)-quinolone] | 103 ± 1.22% | 102 ± 0.42% | 100 ± 0.55% | 100 ± 1.45% | 8 µg/mL and 24.8 µM | –
4 | CCCCCCCC#CCCc1cc(=O)c2ccccc2n1C [Compound 8d, 1-Methyl-2-(3'-undecynyl)-4(1H)-quinolone] | 101 ± 1.08% | 99.8 ± 0.52% | 98.7 ± 0.8% | 97.3 ± 0.66% | 8 µg/mL and 25.9 µM | –
5 | CCCCCCCC#CCCc1cc(=O)c2ccccc2n1CC [Compound 8e, 1-Ethyl-2-(3'-undecynyl)-4(1H)-quinolone] | 102 ± 1.05% | 101 ± 1.42% | 100 ± 0.56% | 100 ± 1.05% | 8 µg/mL and 24.8 µM | –
6 | CCCCCCCC#CCCc1cc(=O)c2ccccc2n1CCC [Compound 8f, 1-(n-Propyl)-2-(3'-undecynyl)-4(1H)-quinolone] | 100 ± 1.05% | 101 ± 1.28% | 91.7 ± 2.77% | 70.9 ± 8.50% | 4 µg/mL and 11.9 µM | –
7 | CCCCCCCCC#Cc1cc(=O)c2ccccc2n1CC [Compound 8g, 1-Ethyl-2-(1'-decynyl)-4(1H)-quinolone] | 101 ± 0.97% | 98.7 ± 2.97% | 56.5 ± 2.03% | 12.1 ± 4.79% | 2 µg/mL and 6.5 µM | MIC (M. fortuitum (ATCC 6841)): 8 µg/mL and 25.9 µM; MIC (M. phlei (ATCC 11758)): 4 µg/mL and 12.9 µM; MIC (M. smegmatis mc^2155): 4 µg/mL and 12.9 µM
8 | CCCCCCCCC#Cc1cc(=O)c2ccccc2n1CCC [Compound 8h, 1-(n-Propyl)-2-(1'-decynyl)-4(1H)-quinolone] | 103 ± 1.38% | 101 ± 2.47% | 39.5 ± 3.59% | 14.1 ± 7.83% | 4 µg/mL and 12.4 µM | –
9 | CCCCCCCCC#Cc1cc(=O)c2ccccc2n1CCCC [Compound 8i, 1-(n-Butyl)-2-(1'-decynyl)-4(1H)-quinolone] | 103 ± 3.13% | 101 ± 0.81% | 67.2 ± 9.90% | 28.7 ± 8.95% | 4 µg/mL and 11.9 µM | –
10 | CCCCCCCCC#CCCc1cc(=O)c2ccccc2n1C [Compound 8j, 1-Methyl-2-(3'-dodecynyl)-4(1H)-quinolone] | 97.6 ± 1.03% | 96.7 ± 1.49% | 95.1 ± 0.81% | 95.84 ± 0.96% | 4 µg/mL and 12.4 µM | –
11 | CCCCCCCCC#CCCc1cc(=O)c2ccccc2n1CC [Compound 8k, 1-Ethyl-2-(3'-dodecynyl)-4(1H)-quinolone] | 97.6 ± 1.69% | 95.1 ± 1.04% | 94.7 ± 0.92% | 74.8 ± 1.99% | 4 µg/mL and 11.9 µM | melting point: 66 to 68 °C
12 | CCCCCCCCCCC#CCCc1cc(=O)c2ccccc2n1CC [Compound 8p, 1-Ethyl-2-(3'-tetradecynyl)-4(1H)-quinolone] | 97.3 ± 1.37% | 95.4 ± 0.76% | 93.3 ± 1.13% | 8.75 ± 9.35% | 1 µg/mL and 2.7 µM | melting point: 74 to 76 °C; MIC (M. fortuitum (ATCC 6841)): 4 µg/mL and 10.9 µM; MIC (M. phlei (ATCC 11758)): 2 µg/mL and 5.5 µM; MIC (M. smegmatis mc^2155): 1 µg/mL and 2.7 µM
13 | CCCCCCCCCCCCC#CCCc1cc(=O)c2ccccc2n1C [Compound 8s, 1-Methyl-2-(3′-hexadecynyl)-4(1H)-quinolone] | 93.9 ± 0.61% | 92.2 ± 0.70% | 58.9 ± 3.65% | 41.5 ± 9.49% | 128 µg/mL and 338 µM | melting point: 58 to 61 °C
14 | CCCCCCCCCCCCCC#Cc1cc(=O)c2ccccc2n1C [Compound 8t, 1-Methyl-2-(1'-pentadecynyl)-4(1H)-quinolone] | 100 ± 1.01% | 100 ± 1.38% | 98.8 ± 1.28% | 93.8 ± 0.96% | 128 µg/mL and 351 µM | –
15 | O=c1cc(/C=C/CCCCCCCCCCBr)n(C2CC2)c2ccccc12 [Compound 18a, 1-Cyclopropyl-2-[(E)-12-bromodec-1'-enyl]-4(1H)-quinolone] | – | – | – | – | 8 µg/mL and 18.6 µM | melting point: 85 to 87 °C
16 | O=c1cc(/C=C/CCCCCCCCCCCBr)n(C2CC2)c2ccccc12 [Compound 18b, 1-Cyclopropyl-2-[(E)-13-bromotridec-1'-enyl)-4(1H)-quinolone] | – | – | – | – | 8 µg/mL and 18.1 µM | melting point: 61 to 63 °C
17 | Cn1c(/C=C/CCCCCCCCCCBr)cc(=O)c2ccccc21 [Compound 19a, 1-Methyl-2-[(E)-12-bromodec-1'-enyl]-4(1H)-quinolone] | – | – | – | – | 0.5 µg/mL (≈ 1.24 µM) | MIC (M. fortuitum (ATCC 6841)): 1 µg/mL and 2.5 µM; MIC (M. phlei (ATCC 11758)): 1 µg/mL and 2.5 µM; MIC (M. smegmatis mc^2155): 1 µg/mL and 2.5 µM
18 | Cn1c(/C=C/CCCCCCCCCCCBr)cc(=O)c2ccccc21 [Compound 19b, 1-Methyl-2-[(E)-13-bromotridec-1'-enyl)-4(1H)-quinolone] | – | – | – | – | 0.5 µg/mL (≈ 1.19 µM) | MIC (M. fortuitum (ATCC 6841)): 1 µg/mL and 2.4 µM; MIC (M. phlei (ATCC 11758)): 1 µg/mL and 2.4 µM; MIC (M. smegmatis mc^2155): 1 µg/mL and 2.4 µM
19 | CCCCCCCCCCC/C=C/c1cc(=O)c2ccccc2n1C1CC1 [Compound 22a, 1-Cyclopropyl-2-[(E)-1′-tridecenyl]-4(1H)-quinolone] | – | – | – | – | 128 µg/mL and 351 µM | melting point: 86 to 88 °C
20 | CCCCCCCCCCCC/C=C/c1cc(=O)c2ccccc2n1C1CC1 [Compound 22b, 1-Cyclopropyl-2-[(E)-1′-tetradecenyl]-4(1H)-quinolone] | – | – | – | – | 128 µg/mL and 338 µM | melting point: 96 to 98 °C
21 | CC[C@@H](CO)NCCN[C@@H](CC)CO [Ethambutol, reference compound] | – | – | – | – | 2 µg/mL and 9.8 µM | MIC (M. fortuitum (ATCC 6841)): 8 µg/mL and 39.2 µM; MIC (M. phlei (ATCC 11758)): 4 µg/mL and 19.6 µM; MIC (M. smegmatis mc^2155): 4 µg/mL and 19.6 µM
22 | NNC(=O)c1ccncc1 [Isoniazid, reference compound] | – | – | – | – | 4 µg/mL and 29.2 µM | MIC [3]: 0.1 µg/mL and 0.7 µM; MIC (M. fortuitum (ATCC 6841)): 2 µg/mL and 14.6 µM; MIC (M. phlei (ATCC 11758)): 8 µg/mL and 58.3 µM; MIC (M. smegmatis mc^2155): 4 µg/mL and 29.2 µM
23 | CCn1cc(C(=O)O)c(=O)c2cc(F)c(N3CCNCC3)cc21 [Norfloxacin, reference compound] | – | – | – | – | – | MIC (S. aureus EMRSA-15): 0.5 µg/mL and 1.6 µM; MIC (S. aureus EMRSA-16): 128 µg/mL and 401 µM
24 | CN(C)[C@@H]1C(O)=C(C(N)=O)C(=O)[C@@]2(O)C(O)=C3C(=O)c4c(O)cccc4[C@@](C)(O)[C@H]3C[C@@H]12 [Tetracycline, reference compound] | – | – | – | – | – | MIC (S. aureus EMRSA-15): 0.25 µg/mL and 0.6 µM; MIC (S. aureus EMRSA-16): 0.25 µg/mL and 0.6 µM
25 | CC[C@]1(O)C[C@@H]2CN(CCc3c([nH]c4ccccc34)[C@@](C(=O)OC)(c3cc4c(cc3OC)N(C)[C@H]3[C@@](O)(C(=O)OC)[C@H](OC(C)=O)[C@]5(CC)C=CCN6CC[C@]43[C@@H]65)C2)C1 [Vinblastin, reference compound] | – | – | – | – | – | Metabolic active MRC-5 cells (%) ([1]; 0.12 µM (positive control)): 51.5 ± 2.36%
